The target of experiment [1] is Glucocorticoid receptor (Rattus norvegicus) (UniProt P06536). Description: Inhibition of glucocorticoid receptor mediated tyrosine aminotransferase activity. Also on record: concentration or dose not given beside the values. As to conditions: concentration not given here.
Experiment [2] is described as follows: Inhibitory activity against rat lymphocytes. Further details: concentration or dose not given beside the values.
Experiment [3] deals with T1, Glucocorticoid receptor (Homo sapiens, UniProt P04150).
T1 sequence (P04150 whole entry): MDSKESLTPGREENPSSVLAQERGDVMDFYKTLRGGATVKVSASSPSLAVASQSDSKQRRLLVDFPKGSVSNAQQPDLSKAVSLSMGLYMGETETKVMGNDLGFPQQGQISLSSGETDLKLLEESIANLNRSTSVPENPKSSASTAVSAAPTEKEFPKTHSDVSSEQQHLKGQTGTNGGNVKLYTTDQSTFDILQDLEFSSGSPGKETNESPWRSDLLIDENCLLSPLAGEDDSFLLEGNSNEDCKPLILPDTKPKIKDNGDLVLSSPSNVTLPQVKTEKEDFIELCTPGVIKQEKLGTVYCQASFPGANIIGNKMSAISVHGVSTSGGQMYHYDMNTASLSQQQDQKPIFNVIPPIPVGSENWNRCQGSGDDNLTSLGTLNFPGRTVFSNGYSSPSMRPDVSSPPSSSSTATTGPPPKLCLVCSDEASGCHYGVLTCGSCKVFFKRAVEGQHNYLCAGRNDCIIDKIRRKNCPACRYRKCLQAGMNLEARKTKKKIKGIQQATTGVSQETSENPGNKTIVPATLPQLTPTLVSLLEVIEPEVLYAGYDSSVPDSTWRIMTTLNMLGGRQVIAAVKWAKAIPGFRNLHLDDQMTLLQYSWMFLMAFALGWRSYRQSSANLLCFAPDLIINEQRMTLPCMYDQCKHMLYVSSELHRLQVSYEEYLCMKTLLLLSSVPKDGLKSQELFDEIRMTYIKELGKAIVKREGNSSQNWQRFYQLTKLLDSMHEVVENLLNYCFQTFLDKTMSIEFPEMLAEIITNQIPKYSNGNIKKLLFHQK
Description: Inhibition of human glucocorticoid receptor.

Experiment [4] addresses T1, Glucocorticoid receptor. Description: Inhibition of glucocorticoid receptor dependent alkaline phosphatase activity. The format is functional.
In experiment [5] the target is Glucocorticoid receptor (Rattus norvegicus) (UniProt P06536). Description: Inhibition of glucocorticoid receptor mediated tyrosine amino transferase activity.
The target in another experiment is T2, Progesterone receptor (Homo sapiens, UniProt P06401).
T2 sequence (P06401 whole entry): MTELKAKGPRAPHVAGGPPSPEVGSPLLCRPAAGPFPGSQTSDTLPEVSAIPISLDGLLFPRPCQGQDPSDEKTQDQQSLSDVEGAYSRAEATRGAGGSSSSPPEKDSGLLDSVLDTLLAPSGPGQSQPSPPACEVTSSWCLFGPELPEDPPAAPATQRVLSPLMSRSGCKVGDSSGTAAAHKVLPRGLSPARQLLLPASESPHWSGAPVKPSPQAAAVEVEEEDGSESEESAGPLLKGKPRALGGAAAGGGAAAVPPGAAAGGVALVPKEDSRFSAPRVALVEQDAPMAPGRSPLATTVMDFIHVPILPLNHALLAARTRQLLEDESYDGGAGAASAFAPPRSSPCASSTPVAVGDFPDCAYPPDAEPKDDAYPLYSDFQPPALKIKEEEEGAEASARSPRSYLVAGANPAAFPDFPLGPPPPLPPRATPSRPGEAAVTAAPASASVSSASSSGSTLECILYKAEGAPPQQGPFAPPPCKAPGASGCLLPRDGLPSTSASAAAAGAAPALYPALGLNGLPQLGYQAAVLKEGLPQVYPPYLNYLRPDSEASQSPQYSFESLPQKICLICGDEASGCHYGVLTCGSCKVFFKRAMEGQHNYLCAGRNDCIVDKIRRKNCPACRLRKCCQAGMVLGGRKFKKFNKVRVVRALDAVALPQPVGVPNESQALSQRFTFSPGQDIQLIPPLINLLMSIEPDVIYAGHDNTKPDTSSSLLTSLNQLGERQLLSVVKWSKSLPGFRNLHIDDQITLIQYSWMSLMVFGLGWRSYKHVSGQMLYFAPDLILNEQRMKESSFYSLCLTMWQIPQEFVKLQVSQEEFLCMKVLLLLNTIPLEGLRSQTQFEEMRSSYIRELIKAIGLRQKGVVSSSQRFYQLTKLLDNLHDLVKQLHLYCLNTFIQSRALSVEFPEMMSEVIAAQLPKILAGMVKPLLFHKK
Description: Inhibition of human progesterone receptor.

For another experiment, the target named is T3, Androgen receptor (Homo sapiens, UniProt P10275).
T3 sequence (P10275 whole entry): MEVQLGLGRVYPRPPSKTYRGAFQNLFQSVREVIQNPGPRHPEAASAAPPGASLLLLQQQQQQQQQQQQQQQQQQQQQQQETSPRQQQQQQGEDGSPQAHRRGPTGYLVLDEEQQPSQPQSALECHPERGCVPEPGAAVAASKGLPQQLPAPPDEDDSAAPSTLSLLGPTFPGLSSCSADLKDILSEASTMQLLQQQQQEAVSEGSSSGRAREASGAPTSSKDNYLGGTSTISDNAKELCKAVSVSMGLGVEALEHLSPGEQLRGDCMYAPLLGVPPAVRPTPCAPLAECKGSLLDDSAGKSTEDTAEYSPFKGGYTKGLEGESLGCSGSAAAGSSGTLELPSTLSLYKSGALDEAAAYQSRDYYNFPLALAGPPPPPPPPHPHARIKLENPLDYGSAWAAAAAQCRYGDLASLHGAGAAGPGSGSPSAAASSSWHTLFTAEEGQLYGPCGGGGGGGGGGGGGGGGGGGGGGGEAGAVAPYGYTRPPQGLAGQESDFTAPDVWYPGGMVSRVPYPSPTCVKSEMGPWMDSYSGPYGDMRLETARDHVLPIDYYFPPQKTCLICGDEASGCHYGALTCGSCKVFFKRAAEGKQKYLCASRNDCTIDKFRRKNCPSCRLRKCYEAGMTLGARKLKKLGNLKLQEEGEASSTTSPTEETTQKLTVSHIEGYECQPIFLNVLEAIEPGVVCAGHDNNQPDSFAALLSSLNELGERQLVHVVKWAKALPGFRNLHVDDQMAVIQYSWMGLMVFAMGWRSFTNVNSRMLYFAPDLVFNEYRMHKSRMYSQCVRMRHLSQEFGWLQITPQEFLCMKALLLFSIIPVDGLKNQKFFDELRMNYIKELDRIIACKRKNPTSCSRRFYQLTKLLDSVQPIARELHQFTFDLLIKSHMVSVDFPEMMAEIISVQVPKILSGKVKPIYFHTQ

Chain of Glucocorticoid receptor (Rattus norvegicus) (P06536 whole entry, looked up): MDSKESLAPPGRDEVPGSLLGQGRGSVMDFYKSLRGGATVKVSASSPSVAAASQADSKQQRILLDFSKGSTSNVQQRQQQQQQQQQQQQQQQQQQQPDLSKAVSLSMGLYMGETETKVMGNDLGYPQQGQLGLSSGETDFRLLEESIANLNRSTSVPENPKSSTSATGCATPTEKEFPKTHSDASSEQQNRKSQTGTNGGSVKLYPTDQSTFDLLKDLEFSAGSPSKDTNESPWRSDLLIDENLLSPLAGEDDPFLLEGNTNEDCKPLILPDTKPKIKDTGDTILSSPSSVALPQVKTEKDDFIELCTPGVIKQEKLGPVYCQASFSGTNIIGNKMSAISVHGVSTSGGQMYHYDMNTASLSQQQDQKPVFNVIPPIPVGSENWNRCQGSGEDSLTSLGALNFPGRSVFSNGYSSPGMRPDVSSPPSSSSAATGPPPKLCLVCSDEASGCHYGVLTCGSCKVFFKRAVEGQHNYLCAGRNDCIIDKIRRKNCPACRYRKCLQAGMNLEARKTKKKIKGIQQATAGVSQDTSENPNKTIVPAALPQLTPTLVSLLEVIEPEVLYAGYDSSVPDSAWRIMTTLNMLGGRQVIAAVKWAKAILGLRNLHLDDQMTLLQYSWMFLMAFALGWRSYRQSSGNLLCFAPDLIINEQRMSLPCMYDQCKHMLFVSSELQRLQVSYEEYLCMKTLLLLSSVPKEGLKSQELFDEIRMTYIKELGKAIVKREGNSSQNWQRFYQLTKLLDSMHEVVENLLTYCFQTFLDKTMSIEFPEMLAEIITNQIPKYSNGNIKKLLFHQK
Description for Androgen receptor: Inhibition of human androgen receptor

Usually inhibition stands for the change of the read-out against control, counted positive when it falls. `C#C[C@]1(O)CC[C@H]2[C@@H]3CCC4=CC(=O)CCC4=C3[C@@H](c3ccc(N(C)CCOC4CC[C@@]5(C)[C@@H](C4)C[C@@H](O)[C@@H]4[C@@H]5C[C@H](O)[C@]5(C)[C@@H]([C@H](C)CCC(=O)O)CC[C@@H]45)cc3)C[C@@]21C` (stereo in doubt; form 1) came in with an inhibition in experiment [1] of 49%.

In the case of `C#C[C@]1(O)CC[C@H]2[C@@H]3CCC4=CC(=O)CCC4=C3[C@@H](c3ccc(N(C)CCOC4CC[C@@]5(C)[C@@H](C4)C[C@@H](O)[C@@H]4[C@@H]5C[C@H](O)[C@]5(C)[C@@H]([C@H](C)CCC(=O)O)CC[C@@H]45)cc3)C[C@@]21C` (stereo in doubt; form 2), the inhibition in experiment [1] was 72%.

The term Inhibition denotes the change of the read-out against control, counted positive when it falls. As for `CC#C[C@]1(O)CC[C@H]2[C@@H]3CCC4=CC(=O)CCC4=C3[C@@H](c3ccc(N(C)CCO[C@H]4CC[C@@]5(C)[C@@H](C4)C[C@@H](O)[C@@H]4[C@@H]5C[C@H](O)[C@]5(C)[C@@H]([C@H](C)CCC(=O)NCCS(=O)(=O)O)CC[C@@H]45)cc3)C[C@@]21C`, the Inhibition in experiment [2] was -6%.

The Ki is a dissociation constant, usually derived from enzyme kinetics or from competition with a known ligand. Take `C#C[C@]1(O)CC[C@H]2[C@@H]3CCC4=CC(=O)CCC4=C3[C@@H](c3ccc(N(C)CCOC4CC[C@@]5(C)[C@H](CC[C@@H]6[C@@H]5C[C@H](O)[C@]5(C)[C@@H]([C@H](C)CCC(=O)O)CC[C@@H]65)C4)cc3)C[C@@]21C` (stereo not given in full): the inhibition in experiment [1] amounted to 69%. Besides, the Ki turned out to be 0.16 nM at Glucocorticoid receptor [3] and 0.38 nM on Glucocorticoid receptor [4]. Moreover, the Inhibition in experiment [2] was found to be 22%.

In the case of `C#C[C@]1(O)CC[C@H]2[C@@H]3CCC4=CC(=O)CCC4=C3[C@@H](c3ccc(N(C)CCC[C@@]4(O)CC[C@@]5(C)[C@H](C[C@@H](O)[C@@H]6[C@@H]5C[C@H](O)[C@]5(C)[C@@H]([C@H](C)CCC(=O)O)CC[C@@H]65)C4)cc3)C[C@@]21C`, in experiment [1], the inhibition is 6%. In addition, the Ki on Glucocorticoid receptor [3] is 0.11 nM; on Glucocorticoid receptor [4] it was 4.3 nM. In addition, in experiment [2], the Inhibition was found to be 0%.

As to `C#C[C@]1(O)CC[C@H]2[C@@H]3CCC4=CC(=O)CCC4=C3[C@@H](c3ccc(N(C)C(=O)CNC(=O)O[C@H]4C[C@H]5[C@@H]([C@H](O)C[C@@H]6C[C@H](O)CC[C@@]65C)[C@@H]5CC[C@H]([C@H](C)CCC(=O)O)[C@@]45C)cc3)C[C@@]21C`, the Ki was determined as 6.5 nM on Glucocorticoid receptor [3], 100 nM on Glucocorticoid receptor [4] and 500 nM in experiment [5].

Regarding `C#C[C@]1(O)CC[C@H]2[C@@H]3CCC4=CC(=O)CCC4=C3[C@@H](c3ccc(N(C)CCNC(=O)O[C@@H]4C[C@@H]5CC(O)CC[C@]5(C)[C@H]5C[C@H](O)[C@]6(C)[C@@H]([C@H](C)CCC(=O)O)CC[C@H]6[C@H]45)cc3)C[C@@]21C` (stereo not given in full), the Ki on Progesterone receptor was 4.6 nM; at Glucocorticoid receptor [3] it was 1.2 nM; at Glucocorticoid receptor [4] it was 37 nM; on Androgen receptor, 18 nM; in experiment [5], 730 nM.

Consider `CC#C[C@]1(O)CC[C@H]2[C@@H]3CCC4=CC(=O)CC[C@]4(Cc4ccc(CCCO[C@H]5CC[C@@]6(C)[C@@H](C5)C[C@@H](O)[C@@H]5[C@@H]6C[C@H](O)[C@]6(C)[C@@H]([C@H](C)CCC(=O)O)CC[C@@H]56)cc4)C3=CC[C@@]21C`, for which the inhibition in experiment [1] is 5%. Moreover, the Inhibition in experiment [2] was -16%.

On to `C#C[C@]1(O)CC[C@H]2[C@@H]3CCC4=CC(=O)CCC4=C3[C@@H](c3ccc(N(C)CCOC4CC[C@@]5(C)[C@H](CC[C@@H]6[C@@H]5CC[C@]5(C)[C@@H]([C@H](C)CCC(=O)O)CC[C@@H]65)C4)cc3)C[C@@]21C` (stereo not given in full), for which the Ki at Glucocorticoid receptor [3] came out at 0.22 nM; at Glucocorticoid receptor [4], 2.7 nM.

For the compound `C#C[C@]1(O)CC[C@H]2[C@@H]3CCC4=CC(=O)CCC4=C3[C@@H](c3ccc(N(C)CCOC4CC[C@@]5(C)[C@@H](C4)C[C@@H](O)[C@@H]4[C@@H]5CC[C@]5(C)[C@@H]([C@H](C)CCC(=O)O)CC[C@@H]45)cc3)C[C@@]21C` (stereo not given in full), the Ki at Glucocorticoid receptor [3] came out at 0.18 nM; on Glucocorticoid receptor [4], 0.76 nM.

The record behind these values is ChEMBL document CHEMBL1138676, “Liver-selective glucocorticoid antagonists: a novel treatment for type 2 diabetes” (J Med Chem, 2004).
